# Source: patent publication US9987381B2, “Radioligands for imaging the LPA-1 receptor” (BRISTOL-MYERS SQUIBB COMPANY, priority 2013, dated 2018)
# Experiments:
# LPA1 receptor = target: T1, LPA1 receptor (Mus musculus, UniProt P61793); assay: In vitro autoradiography of mouse lung sections: [18F] radioligand binding and displacement by blocking compound; details: for displacement of [18F] radioligand vs total binding: 3.9 nM radioligand
# T1 construct: Fresh tissues from naïve mouse lungs and bleomycin treated lungs were immersed into OCT; from tissue; host or cells: lung sections (10 µm) of naïve and bleomycin-treated female C57BL/6 mice
# Protocol: The naïve lung mouse tissues were collected from female C57BL/6 mice (8-10 weeks old; 18-25 grams), the samples were stored in −80° C. degree freezer until use. The bleomycin treated animals consists of female C57BL/6 mice (8-10 weeks old; 18-25 grams) were anesthetized with 5% isoflurane the day before study initiation. Bleomycin was dissolved into sterile phosphate buffered saline to a concentration of 500 μg/ml. For injection, mice were anesthetized with 5% isoflurane and using a 1 cc syringe with a 27 g needle, 100 μl of the stock bleomycin solution was injected subcutaneously (SC) into the center of each shaved region (50 μg/site). The bleomycin was administered 5 days/week, Monday through Friday, and was injected into the same region each day until Day 28. Specifically the left lobe of lung was harvested and inflated using a 1:1 OCT (which consists of a mixture 10.24% w/w polyvinyl alcohol 4.26% w/w polyethylene glycol 85.50 w/w non-reactive ingredients)/phosphate buffered saline mixture.
# Fresh tissues from naïve mouse lungs and bleomycin treated lungs were immersed into OCT and chilled in 2-methylbutane for 2-5 minutes until frozen. The tissues were then wrapped in foil/ZIPLOC® bag and stored at −80° C. Tissue sections of 10 μm thickness (collected as 2 sections/slide) were cut using a cryostat and thaw-mounted on glass microscope slides, allowed to air dry for approximately 30 minutes. Blocking studies with 1-(4′-(3-methyl-4-(((l-phenylethoxy)carbonyl)amino)isoxazol-5-yl)-[1,1′-biphenyl]-4-yl)cyclopropanecarboxylic acid at 0.1 nM, 1 nM and 10 nM respectively were conducted using the following conditions. The individual slides, 4 slides per concentration, were pre-incubated in a mixture of 50 mM Hepes, […], pH=7.4 and 0.05% Tween-20 buffer solution that contains only this buffer (total binding), as well as […] 1-(4′-(3-methyl-4-(((l-phenylethoxy)carbonyl)amino)isoxazol-5-yl)-[1,1′-biphenyl]-4-yl)cyclopropanecarboxylic acid, 1 nM 1-(4′-(3-methyl-4-(((1-phenylethoxy)carbonyl)amino)isoxazol-5-yl)-[1,1′-biphenyl]-4-yl)cyclopropanecarboxylic acid and 10 nM 1-(4′-(3-methyl-4-(((1-phenylethoxy)carbonyl)amino)isoxazol-5-yl)-[1,1′-biphenyl]-4-yl)cyclopropanecarboxylic acid for a 3 hour period. These individual slides were then incubated in the buffer solution containing 3.9 nM of [^18F]-1-(4′-(4-((((3-(fluoromethyl)benzyl)oxy)carbonyl)amino)-3-methylisoxazol-5-yl)-[1,1′-biphenyl]-4-yl)cyclopropanecarboxylic acid that was formulated in 10% ethanol 90% 0.5% sodium bicarbonate. This solution was diluted with 300 ml of buffer solution to generate a stock solution. From this stock solution, 40 ml was added to each incubation chamber. One of these chambers contained only the radioligand buffer solution, which is referred to as the total binding section. An additional 40 ml was added to each incubation chamber along with the relevant concentration of blocking compound (1-(4′-(3-methyl-4-(((1-phenylethoxy)carbonyl)amino)isoxazol-5-yl)-[1,1′-biphenyl]-4-yl)cyclopropanecarboxylic acid at 0.1 nM, 1 nM, 10 nM). Then the individual slides were incubated in the buffer solution containing the [^18F]-1-(4′-(4-((((3-(fluoromethyl)benzyl)oxy)carbonyl)amino)-3-methylisoxazol-5-yl)-[1,1′-biphenyl]-4-yl)cyclopropanecarboxylic acid radioligand and blocking compound for 1.5 hours at room temperature to reach maximum binding. After 4.5 hours of total incubation, slides from each treatment group were removed from the incubation solutions and placed in an ice-cold wash buffer (50 mM Hepes, 100 mM NaCl, and 0.05% Tween-20, pH=7.4) and rinsed 4 times. Slides were then dried under a stream of cold air for approximately 1 hour. The air-dried slides were exposed by placing the slides onto an imaging plate (BAS-SR 3545S) for 15 minutes at room temperature. The imaging plate was scanned using the bioimaging analyzer (Fujifilm Fluorescent Image Analyzer, FLA-9000). The pixel size of the autoradiogram images was 100 μm. […]
# LPA1 = target: T2, LPA1 (Macaca mulatta, UniProt H9EN64); assay: PET blocking study of [11C]-BMT-136088 with BMS-986020; format: in vivo, rhesus monkeys
# T2 construct: from tissue; host or cells: lung of living anaesthetised rhesus monkeys (in vivo PET)
# Protocol: For the blocking data reanalyzed here, each animal was scanned twice during the administration of [^11C]-BMT-136088, using a bolus plus infusion (B+I) protocol: at baseline first, then during the administration of the blocking drug, BMS-986020, also using a bolus plus infusion protocol.
# In the blocking study, BMS-986020 was administered i.v. using a 10-min bolus ([…]) followed by a ˜230 min infusion (0.25 mg/kg/hr) for a total dose of 1.224±0.015 mg/kg.
# Two rhesus monkeys were included in the blocking, test-retest, and saturation studies: one male, one female; age=4.8±0.8 y; weight=8.6±0.4 kg. Studies in the same animal were separated by at least 2 weeks to allow the animal to recover from anesthesia and other effects. Four rhesus monkeys (2M, 2F) were included in the dosimetry study.
# Following a low-dose, CT scan used for attenuation correction and to delineate the lung regions of interest, [^11C]-BMT-136088 was injected using a computer-control pump with a bolus plus infusion protocol, with an initial 1-min bolus and a ˜119-min infusion. The volume injected during the initial bolus represented 100 min (Kbol) worth of infusion in the blocking and test-retest study, and 300 min worth of infusion in the saturation study.
# Beginning at the start of each injection, a 120-minute time-of-flight list-mode acquisition on the mCT PET/CT scanner (Siemens Medical Solutions USA, Inc.) was performed. Dynamic PET scan data were reconstructed with corrections for point-spread function, attenuation, normalization, scatter, randoms, and dead time using a 3D OP-OSEM TOF algorithm. PET images were reconstructed into 33 frames, with the following frame timing: 6×30 sec; 3×1 min; 2×2 min; 22×5 min. Each frame contained 400×400×111 (x,y,z) voxels (2.04×2.04×2.0 mm).
# Blood samples for PK for each blockade study session were obtained at −1, 60, 90, 120, 150, 210, 240 and 270 minutes after the start of BMS-986020 bolus plus infusion. Red cells were precipitated at 3200 rpm for 10 minutes at 10° C.; the plasma was divided into two aliquots and frozen at −80° C. until shipped for analysis. […]
# T2 sequence (H9EN64 1-364): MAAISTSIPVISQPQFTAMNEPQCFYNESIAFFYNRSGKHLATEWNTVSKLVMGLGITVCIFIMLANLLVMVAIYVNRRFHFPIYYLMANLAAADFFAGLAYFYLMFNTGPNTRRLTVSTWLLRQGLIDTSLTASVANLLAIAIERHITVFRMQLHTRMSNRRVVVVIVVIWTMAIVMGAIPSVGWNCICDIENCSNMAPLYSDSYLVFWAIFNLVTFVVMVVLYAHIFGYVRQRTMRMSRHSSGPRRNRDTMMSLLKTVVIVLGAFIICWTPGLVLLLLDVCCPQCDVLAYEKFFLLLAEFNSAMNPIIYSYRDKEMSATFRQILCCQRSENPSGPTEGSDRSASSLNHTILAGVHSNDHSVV
# T1 sequence (P61793 whole entry): as the sequence (H9EN64 1-364) above, with I4A, I8S, P22Q, H40Y, I61V, E193D, N194H, I269V, S331N, S335N counted along it
smiles,measurement,setting,value
"Cc1noc(-c2ccc(-c3ccc(C4(C(=O)O)CC4)cc3)cc2)c1NC(=O)OC(C)c1ccccc1 (centres unmarked) [1-(4′-(3-methyl-4-(((1-phenylethoxy)carbonyl)amino)isoxazol-5-yl)-[1,1′-biphenyl]-4-yl)cyclopropanecarboxylic acid]",radioligand displacement (FIG. 2),"LPA1 receptor; 10 nM blocking compound, naïve and bleomycin treated mouse lung sections",~80%
same,displacement of [18F] radioligand vs total binding,"LPA1 receptor; bleomycin treated mouse lung tissue sections, 0.1 nM blocking compound",11.3+/−4.2%
same,displacement of [18F] radioligand vs total binding,"LPA1 receptor; bleomycin treated mouse lung tissue sections, 1 nM blocking compound",55.5+/−2.3%
same,displacement of [18F] radioligand vs total binding,"LPA1 receptor; bleomycin treated mouse lung tissue sections, 10 nM blocking compound",82.7%+/−1.4
same,displacement of [18F] radioligand vs total binding,"LPA1 receptor; naïve mouse lung tissue sections, 0.1 nM blocking compound",18.2+/−7.6%
same,displacement of [18F] radioligand vs total binding,"LPA1 receptor; naïve mouse lung tissue sections, 1 nM blocking compound",57.3+/−2.6%
same,displacement of [18F] radioligand vs total binding,"LPA1 receptor; naïve mouse lung tissue sections, 10 nM blocking compound",72.6%+/−6.7
Cc1noc(-c2ccc(-c3ccc(C4(C(=O)O)CC4)cc3)cc2)c1NC(=O)O[C@H](C)c1ccccc1 [BMS-986020],blockade effect,"LPA1; VT by MA1, all corrections incl. lung density and blood radioactivity, BMS-986020 i.v. bolus plus infusion",54±11%
same,occupancy of LPA1 binding,LPA1; at 1.25 mg/kg,~100%
same,receptor occupancy at 1.25 mg/kg,"LPA1; rhesus monkey, at 1.25 mg/kg, read-out: occupancy of LPA1 binding",103 ± 20%
"Cc1noc(-c2ccc(-c3ccc(C4(C(=O)O)CC4)cc3)cc2)c1NC(=O)OCc1cccc(C[18F])c1 [[^18F]-1-(4′-(4-((((3-(fluoromethyl)benzyl)oxy)carbonyl)amino)-3-methylisoxazol-5-yl)-[1,1′-biphenyl]-4-yl)cyclopropanecarboxylic acid]",localisation of radioligand binding in lung,"LPA1 receptor; bleomycin treated mouse lung section, trichrome collagen staining, FIG. 1",resides within positive collagen
